Test results: US5321016A, “Use of certain substituted α-amino acids in treating stress-related psychiatric disorders” (Sandoz Pharmaceuticals Corp., priority 1986, dated 1994)

What was measured:
[1] = system: plasma corticosterone; assay: inhibition of plasma corticosterone rise induced by social stress in mice; assay type: in vivo, mouse (male, OF-1); details: 0.3 to 3 mg/kg p.o.
Description: This can be shown in the following test:
One day before the experiment a group of 5 male mice (40-50 g, OF-1, Sandoz,Basle) were placed in a transparent makrolon cage Typ 3, which is cut in halves by a grid. The next day each mouse was given an oral dose of 0.3-30 mg/kg of a compound of the invention, Two hours later an isolated male mouse was introduced for 15 minutes into the empty half of the cage and two trained observers recorded the behaviour of the mice in terms of acts such as dig, push-dig and rattle. Blood plasma samples were then taken from the tested mice group and assayed for corticosterone concentrations using a modified method of Paerson-Murphy B. E., J. Clin. Endocrinology 27 (1967) 973-990. The procedure was repeated with a control group of 5 mice which was given only a solvent.

[2] = system: electroshock-induced convulsions; assay: inhibition of electroshock-induced convulsions in the mouse; assay type: in vivo, mouse (OF-1); details: ip, 1 h, i.p., 60 minutes before shock, read-out: EDmin in the electroshock-induced convulsion test
Description: E. Swinyard, J. Am. Pharm. Assoc. Scient. Ed. 38, 201 (1949) and J. Pharmacol. Exptl. Therap. 106, 319 (1952)]. In this test groups of 3 mice (18-26 g, OF-1, Sandoz Basle) receive the test substance in a dosage of 3.2-100 mg/kg i.p. After 60 minutes a 50 mA, 200 ms long shock is applied with corneal electrodes smeared with electrolyte jelly. This supra-threshold shock produces tonic extensor convulsions of all extremities. Inhibition of the hindlimb extension is taken as a protective action. After investigation of several dose-levels an EDmin is estimated.

[3] = system: NMDA (N-Methyl-D-aspartic acid) receptors; assay: inhibition of NMDA-induced depolarizations of the isolated amphibian spinal cord (competitive antagonism); assay type: cell-based, toad or frog; details: at 5 μM
Text: The compounds of the invention further interact with excitatory amino acid systems, in particular they are competitive antagonists of NMDA (N-Methyl-D-aspartic acid) receptors, as indicated by an inhibitory effect on NMDA-induced depolarizations of the isolated amphibian spinal cord. This may be shown in the test performed in conventional manner (see for example D. R. Curtis et al., J. Physiol. (London) 150, 656-682 (1961) and R. H. Evans et al., Br. J. Pharmac. 67, 591-603 (1979) as follows:
A hemisected proximal part of the spinal cord of a toad or frog lies in a recording chamber being perfused by a Ringer solution (111 mM NaCl, 2 mM KCl, 2 mM CaCl2, 12 mM Glucose, Tris-buffer (pH 7.5, 10 mM). The dorsal root is pulled into the stimulating chambers, the ventral root into the recording chambers. A stimulator connected to the stimulating chambers is used. A DC high impedance preamplifier measures the DC potential between the ground lead sampling the main chamber and one of the recording chambers. The signal from the pre-amplifier is monitored on a CRO to display stimulated synaptic activity (dorsal root--ventral root potential, DR--VRP) or to a chart recorder to display slow changes in potential. […]
Antagonists are tested in two stages. […] In such cases pA2 values are calculated according to the formula […]

| Structure (SMILES) | inhibition of the rise of plasma-corticosterone (social stress) [1] | minimal effective dose [2] [mg/kg] | pA2 as NMDA receptor inhibitor [3] |
| --- | --- | --- | --- |
| NC(Cc1cc(CP(=O)(O)O)cc(-c2ccccc2)c1)C(=O)O (single isomer, unassigned) [Example 16, (+)-α-Amino-3-(5-phosphonomethyl-[1.1'-biphenyl]-3-yl) propanoic acid] | inhibits significantly | – | – |
| NC(Cc1cc(CP(=O)(O)O)cc(-c2ccc(Cl)cc2)c1)C(=O)O (racemic) [Example 1, (±)-α-Amino-3-(4'-chloro-5-phosphonomethyl-[1.1'-biphenyl]-3-yl)propanoic acid] | – | < 50 | 7.3 |
